Data reported in US20240002441A1, “PEPTIDES AND USES THEREOF IN MODULATION OF AMYLOID-BETA PROTEIN DEGRADING PROTEASES” (priority 2020, published 2024).

Tests used:
[1] = tested on: Ang II-induced expression of IL-6 and Collagen III in EA.hy926 cells; assay: Ang II-induced expression of IL-6 and Collagen III in EA.hy926 cells, western blotting (Example 9); type: cell-based; conditions: 24 h
Procedure: EA.hy926 cells (passage 40) were seeded at a density of 1×10^6 cells/mL. After 24 hours, cells were incubated overnight in reduced serum media. Cells were then treated over 24 h as follows: • 1. Vehicle control • 2. Ang II (10 nM) • 3. […] Ang II (10 nM)+rhACE2 (0.05 ng/μL) • 5.
Following incubation, cells were lysed using lysis buffer (Thermo Fisher Scientific, Cat #89900) containing 1% protease inhibitor (Thermo Fisher Scientific, Cat #1861278). Cell lysate was centrifuged at 13,000 rpm for 10 min. Protein concentration in the supernatant was determined by NanoDrop (Thermo Fisher Scientific, Cat #ND-1000). Supernatants were stored at −30° C. until analysed.
Samples were diluted in SDS-PAGE reducing sample buffer (Bio-Rad Laboratories, Cat #1610747; California, USA) containing 1% β-mercaptoethanol (Bio-Rad Laboratories, Cat #221610710) to reach a final concentration of […]. Prior to loading, samples were heated at 95° C. for 5 min. Samples were loaded into the wells alongside the molecular weight marker (Life Technologies, Cat #LC5800; California, USA). Electrophoresis was conducted at 200 V for 40 min in 1× running buffer. Following protein separation by SDS-PAGE, proteins were blotted onto nitrocellulose membranes at 100 V for 1 h in 1× transfer buffer. The membranes were then blocked in 5% skim milk in 1× Tris-buffered saline (TBST) containing 0.05% Tween 20 (Thermo Fisher Scientific, Cat #28352) for 1 h at room temperature. The membranes were incubated with IL-6 (1:500; Thermo Fisher Scientific, Cat #700480) or collagen III (1:500; Invitrogen, Cat #PA5-27828) primary antibodies while rocking at 4° C. overnight. Membranes were then probed with secondary antibody conjugated with horseradish peroxidase (HRP) (1:6000) for 1 h at room temperature. The HRP-labelled proteins were detected using chemiluminescence SuperSignal™ ECL Western Blotting Substrate (Thermo Fisher Scientific, Cat #34577) at 1:1 ratio. Beta-actin was used as a loading control. Protein bands were analysed using ImageJ (version 1.51) and band density was normalised with the respective beta-actin.

MMP-2 = molecular target: T1, MMP-2 (Homo sapiens, UniProt P08253); assay: QFS assay of Aβ-degrading enzymes: MMP-2 (Example 6); type: biochemical; conditions: MMP2 0.50 ng/μL activated with p-aminophenylmercuric acetate
T1 construct: purchased Sigma Aldrich SRP6270-10UG
T1 sequence (P08253 110-660): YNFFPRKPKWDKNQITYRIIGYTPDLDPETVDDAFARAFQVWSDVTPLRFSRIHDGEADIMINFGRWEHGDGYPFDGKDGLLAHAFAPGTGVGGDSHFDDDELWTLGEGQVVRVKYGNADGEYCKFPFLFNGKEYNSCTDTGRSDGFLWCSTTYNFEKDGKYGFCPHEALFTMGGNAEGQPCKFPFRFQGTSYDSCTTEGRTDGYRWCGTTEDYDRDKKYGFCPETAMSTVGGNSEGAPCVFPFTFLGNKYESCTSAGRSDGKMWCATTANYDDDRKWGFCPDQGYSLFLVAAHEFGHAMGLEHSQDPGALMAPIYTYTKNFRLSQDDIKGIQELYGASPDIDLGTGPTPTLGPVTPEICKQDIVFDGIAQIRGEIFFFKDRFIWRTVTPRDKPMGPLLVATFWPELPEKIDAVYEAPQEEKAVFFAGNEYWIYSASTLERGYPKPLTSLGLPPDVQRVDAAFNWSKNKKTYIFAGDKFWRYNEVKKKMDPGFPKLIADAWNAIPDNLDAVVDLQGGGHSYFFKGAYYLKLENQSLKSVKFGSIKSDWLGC
Procedure: Plate reader-based enzyme assays were performed using a quenched fluorescent substrate (QFS) in a 96-well format using a SpectraMAX M4 Microplate reader (Molecular Devices). The increase in fluorescence following addition of QFS (40 μM) was taken as evidence of enzyme activity. Fluorescence was monitored over 2 h at 37° C. using κEx=320 nm and λEm=405 nm. Assays were conducted in black 96-well plates. Specific enzyme activity was expressed as a rate of substrate cleavage calculated using a standard curve of 7-methoxy-coumarin-4-acetic acid.
In all plate reader-based enzyme assays using QFS, the reaction rate (μmol of substrate cleaved/min) was calculated using linear regression analysis (GraphPad Prism software version 8.01). The reaction rates calculated were used to generate the enzyme kinetic parameters Vmax and Km through non-linear regression analysis (GraphPad Prism software, version 8.01; Michaelis-Menten equation). Where indicated, enzyme activity in the presence of peptide was expressed as a % of the enzyme alone. Data were expressed as mean±SEM and statistical significance was determined using t-tests or one-way ANOVAs followed by Tukey's post-hoc test. P<0.05 was considered as statistically significant. […]
SEQ ID NO:2 was assessed in a QFS assay against enzymes NEP, ECE1, ECE2, ACE1, ACE2, IDE and MMP-2 using the method in Example 2 and the following procedure. […]

“H-SLFELGKMIL-NH2 [SEQ ID NO:2, H2N-SLFELGKMIL-NH2]” was tested, and the “Collagen III expression compared to cells treated with Ang II alone” value ([1]; Ang II 10 nM plus 2A 26 μM and/or ACE2 0.05 ng/μL) was “significantly lower”, the “IL-6 expression compared to cells treated with Ang II alone” value ([1]; Ang II 10 nM plus peptide 26 μM and/or rhACE2 0.05 ng/μL) was “significantly lower” and the “Collagen III expression” value ([1]; EA.hy926 cells, Ang II 10 nM alone, or Ang II and 2A (26 μM)) was 28±6%. The “activity of MMP-2 in the presence of peptide” value (MMP-2) was 0.7±0.2 μmol of substrate cleaved and the “effect on the activity of MMP-2” value (MMP-2) was “did not affect”.
